PMC11815855, “Exploring the Structure–Activity Relationships of Albumin-Targeted Picoplatin-Based Platinum(IV) Prodrugs” (Inorganic Chemistry, 2025)
Marks after values point to notes of the source that are not given here.

Tests used:
albumin = albumin (Bos taurus, UniProt P02769); experiment: Albumin binding and stability in phosphate-buffered FCS, SEC-ICP-MS; conditions: 50 μM in FCS (150 mM PB, pH 7.4), 37 °C, 1 h
Procedure: FCS was purchased from Sigma-Aldrich and buffered with 150 mM phosphate pH 7.4 in order to guarantee a stable pH. The platinum(IV) complexes were dissolved in 150 mM PB (pH 7.4) at a concentration of 5 mM and diluted 1:100 in buffered serum to obtain a final concentration of 50 μM. […] Between each sample, a pure water blank was measured. […] Oxygen (purity 5.5, Messer Austria GmbH, Gumpoldskirchen, Austria) was used as the reaction gas.

[1] = Reduction with 10 equiv AA at pH 6.0 and 37 °C, UHPLC; assay type: physicochemical; conditions: 700 μM, 50 mM PB pH 6.0, 37 °C
Text: (§1) To explain the rather unusual in vivo findings, especially with respect to Pico-Mal, we hypothesized that inefficient reductive release of the platinum(II) core from albumin due to steric hindrance of the 2-picoline could provide a plausible explanation for the lack of antitumor activity despite a favorable pharmacokinetic profile. […] To gain insights into whether the molecular weight and thus steric demands of the reducing agent impact the reduction of picoplatin(IV) derivatives, Pico-Succ and the reference complex Cis-Succ were analyzed in the presence of cytochrome C (CytC; ∼12,000 g/mol) or AA (176 g/mol). Therefore, Pico-Succ and Cis-Succ (for synthesis and ^1H NMR characterization, see experimental part and Scheme S1) were coincubated at pH 6.0 with 0.1 equiv CytC[60] and 10 equiv reduced NADH or with 10 equiv AA at 37 °C over 4 h, and the reduction kinetics were compared relatively. The amount of remaining intact platinum(IV) complex at given time points was measured via UHPLC (Figure 6). […]
(§2) PB (50 mM, pH 6.0) containing 700 μM Pt compound was incubated at 37 °C with the addition of 0.1 equiv horse heart CytC and 10 equiv reduced NADH or with 10 equiv L-ascorbic acid. The reaction was monitored on a Thermo Scientific Dionex UltiMate 3000 UHPLC-system using a Waters Acquity UPLC BEH peptide C18 1.7 μm 2.1 × 100 mm column. […]

CT26 colon cancer cells [2] = experiment: MTT-based cell viability assay, CT26, 72 h; design: species or system murine; conditions: 72 h drug exposure
Text: (§3) For the cell culture assays, the human ovarian model A2780/wt and its corresponding cisplatin-resistant subline A2780/cis (both purchased from Sigma and cultured in RPMI1640 medium), the human colorectal cancer model HCT116 (cultured in McCoy′s medium), and the murine (Balb/c) colorectal cancer model CT26 (cultured in DMEM/F-12 (1:1) medium) were used. The colon cancer models were purchased from the American Type Culture Collection (ATCC). The media were supplemented with 10% FCS (purchased from PAA Linz, Austria). To maintain drug resistance of A2780/cis, the subline was cultivated under continuous selection pressure (1 μM cisplatin). The selection drug was removed 1 week before the experiments were performed. Cell cultures were maintained at 37 °C in humidified atmosphere containing 5% CO2. All cultures were free of antibiotics and regularly checked for mycoplasma contamination. All cell culture media and reagents were purchased from Sigma-Aldrich Austria. All investigated drugs were dissolved in either water (oxaliplatin, carboplatin) or DMF before further dilution in cell culture medium. DMF concentrations were always below 0.5%.
(§4) Subsequently, the cells were incubated with the tested compounds in rising concentrations. […] The received data were visualized as dose–response curves by Graph Pad Prism 5 software (Graph Pad software, USA).

[3] = tested on: HCT116 colon cancer cells; experiment: MTT-based cell viability assay, HCT116, 72 h; design: species or system human; conditions: 72 h drug exposure
Text: as §3, §4

[4] = Hydrolytic stability of platinum(IV)-succinimide complexes in PB without AA, UHPLC; assay type: physicochemical; conditions: 1 mM, 150 mM PB pH 7.4, 20 °C
Procedure: (§5) Platinum(IV) prodrugs need to be reduced in the tumor environment to release the cytotoxic platinum(II) complexes. Thus, the reduction properties of Pico-Succ, PicoCarbo-Succ, and PicoOxali-Succ were investigated. As mentioned above, succinimide complexes were used for these studies to avoid competitive hydrolysis of the maleimide moiety. All platinum(IV)-succinimide complexes were incubated in both the absence and presence of a 10-fold excess L-ascorbic acid (AA) in PB at pH 7.4 and 20 °C over 6 h. The amount of remaining intact platinum(IV) complex at given time points was measured via ultrahigh performance liquid chromatography (UHPLC), as shown in Figure 2. Pico-Succ was reduced extremely fast, with only traces of the original complex left in the first measurement after ∼5 min of incubation. Even with equimolar amounts of AA, 90% of Pico-Succ was already reduced after ∼5 min (Figure S6). This level of reductive instability is exceptionally high, even when compared to the “fast” reducing cisplatin(IV) prodrugs, which show a complete conversion after ∼10 h in the presence of 10 equiv AA.[41],[53]
PB (150 mM, pH 7.4) containing 1 mM Pt compound was incubated at 20 °C with and without the addition of 10 equiv L-ascorbic acid or reduced GSH. The reaction was monitored on a Thermo Scientific Dionex UltiMate 3000 UHPLC-system using a Waters Acquity UPLC BEH C18 1.7 μm, 3.0 × 50 mm column. […]

[5] = Reduction kinetics of platinum(IV)-succinimide complexes with AA, UHPLC; assay type: physicochemical; conditions: 1 mM, 150 mM PB pH 7.4, 20 °C
Procedure: as §5
(§6) PB (150 mM, pH 7.4) containing 1 mM Pt compound was incubated at 20 °C with and without the addition of 10 equiv L-ascorbic acid or reduced GSH. The reaction was monitored on a Thermo Scientific Dionex UltiMate 3000 UHPLC-system using a Waters Acquity UPLC BEH C18 1.7 μm, 3.0 × 50 mm column. Milli-Q water containing 0.1% formic acid and acetonitrile containing 0.1% formic acid were used as eluents. A gradient of 5–95% over 5 min was used with a flow of 0.6 mL/min. To evaluate the reaction process, we used the peak area of the parental complex.

CT26 colon cancer cells [6] = experiment: Colony formation (clonogenic) assay, CT26, 7 days; assay type: cell-based, murine; conditions: 7 days drug exposure
Text: as §3
(§7) Then, cells were exposed to the indicated drugs in rising concentrations. After 7 days, the cells were fixed with methanol for 20 min at 4 °C and stained with crystal violet 5 (0.01% in PBS). The fluorescence of the crystal violet was detected by the Typhoon scanner (Typhoon TRIO Variable Mode Imager, GE Healthcare Life Sciences) after excitation by the red laser (633 nm). Quantification was done with ImageJ software.

horse heart CytC = target: T1, horse heart CytC (Equus caballus, UniProt P00004); experiment: Reduction with cytochrome C and NADH, UHPLC; assay type: biochemical; conditions: 700 μM, 0.1 equiv CytC and 10 equiv NADH, 50 mM PB pH 6.0, 37 °C
T1 construct: 0.1 equiv horse heart CytC; from tissue; host or cells: horse heart
Text: as §1, §2

[7] = tested on: A2780/wt ovarian cancer cells; experiment: MTT-based cell viability assay, A2780/wt, 72 h; design: species or system human; conditions: 72 h drug exposure, means of independent experiments
Text: as §3, §4

[8] = tested on: HCT116 colon cancer cells; experiment: Colony formation (clonogenic) assay, HCT116, 7 days; assay type: cell-based, human; conditions: for IC50: 7 days drug exposure, clonogenic assay
Text: as §3, §7

[9] = Reduction of platinum(IV)-succinimide complexes with 10 equiv GSH, UHPLC; assay type: physicochemical; conditions: 1 mM, 150 mM PB pH 7.4, 20 °C, 5 min
Text: It is well-known that platinum(IV) complexes derived from, e.g., oxaliplatin or carboplatin, bearing leaving groups other than chlorido ligands, have distinctly slower reduction rates compared to cisplatin(IV) analogs.[54] This can be explained by a bridging interaction between the chlorido ligands and the reducing agent, which facilitates electron transfer to the platinum center.[55] […] The reductive behavior was also investigated in the presence of 10 equiv GSH in coherence with the above investigated interactions of platinum(II) with GSH (Figure S8).
as §6

[10] = tested on: A2780/cis ovarian cancer cells; experiment: MTT-based cell viability assay, A2780/cis (cisplatin-resistant), 72 h; design: species or system human; conditions: for IC50: 72 h drug exposure, cisplatin-resistant subline, means of independent experiments; for IC50 / IC50 in A2780/cis compared to A2780/wt: MTT-based assay; for RF (resistance factor): fold-change between IC50 values of A2780/cis:A2780/wt; for RF (resistance factor) / IC50 in A2780/cis compared to A2780/wt: 72 h
Text: as §3, §4

[11] = Stability of platinum(II) complexes in PBS or PB, NMR; assay type: physicochemical; conditions: 1 mM, pH 7.4, 37 °C, 8 h incubation, no GSH
Procedure: (§8) An 1 mM solution of Pt compound was incubated in a mixture of 90% PB or PBS (150 mM, pH 7.4) and 10% D2O at 37 °C with and without the addition of 10 equiv GSH. The reaction was monitored with ^1H or [^1H, ^15N] […] The reference spectrum was shifted with a value of −0.5 ppm compared to the original ppm value calibrated to D2O before overlay with a spectrum at a single time point. In case of ^15N-cisplatin, the cross-peak of the parental complex in [^1H, ^15N] HSQC at time point 0 h was used as reference, and spectral overlay was achieved by shifting the 2D spectra at all given time points (2, 4, 6, and 8 h) with vertical steps of +14 ppm compared to the original ^15N NMR ppm value of the parental complex.

[12] = Interaction of platinum(II) complexes with 10 equiv GSH, NMR; assay type: physicochemical; conditions: 1 mM complex, 10% D2O/90% PBS pH 7.4, 37 °C, 8 h, 1H NMR
Procedure: The amount of remaining platinum(II) complex was monitored via ^1H NMR spectroscopy and, particularly for ^15N-cisplatin, via [^1H, ^15N] heteronuclear single quantum coherence (HSQC) NMR spectroscopy (Figure 1).[47]
as §8

CT26 allografts [13] = conditions: carboplatin 60 mg/kg i.v. once a week for two weeks, Figure S11
Procedure: days after first treatment
Balb/c mice. Mice were treated i.v. with the maximal tolerated dose of the respective drug and compared
to the solvent control. […] Oxaliplatin (9
mg/kg) was applied twice a week for two weeks. Tumor volume data are presented as means ± SEM. The
overall survival is depicted via a Kaplan –Meier curve.

CT26 allografts [14] = conditions: oxaliplatin 9 mg/kg i.v. twice a week for two weeks, Figure S11 ref Schueffl et al, Chem. Sci. 2021, 12, 12587-12599; cited from earlier work

Chain of albumin (P02769 25-607): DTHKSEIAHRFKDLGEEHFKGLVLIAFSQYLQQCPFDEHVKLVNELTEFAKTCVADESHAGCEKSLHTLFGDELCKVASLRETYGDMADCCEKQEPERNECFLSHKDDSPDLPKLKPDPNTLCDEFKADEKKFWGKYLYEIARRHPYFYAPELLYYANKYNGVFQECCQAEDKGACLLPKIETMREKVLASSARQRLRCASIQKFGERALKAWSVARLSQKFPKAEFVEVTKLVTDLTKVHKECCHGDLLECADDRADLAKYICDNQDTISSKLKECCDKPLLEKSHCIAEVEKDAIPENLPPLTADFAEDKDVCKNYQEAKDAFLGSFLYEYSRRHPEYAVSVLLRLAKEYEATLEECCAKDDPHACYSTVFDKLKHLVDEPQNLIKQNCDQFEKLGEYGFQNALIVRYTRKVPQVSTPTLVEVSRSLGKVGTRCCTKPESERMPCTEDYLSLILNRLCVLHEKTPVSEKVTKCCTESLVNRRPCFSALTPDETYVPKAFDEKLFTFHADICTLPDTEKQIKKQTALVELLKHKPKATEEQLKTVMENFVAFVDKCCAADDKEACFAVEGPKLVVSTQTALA
T1 sequence (P00004 whole entry): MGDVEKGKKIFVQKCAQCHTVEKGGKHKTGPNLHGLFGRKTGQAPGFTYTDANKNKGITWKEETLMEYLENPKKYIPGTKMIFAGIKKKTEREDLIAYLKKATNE

Structure (SMILES)	IC50 (CT26 colon cancer cells [2]) [µM]	IC50 [3] [µM]	IC50 (CT26 colon cancer cells [6]) [µM]	IC50 [7] [µM]	IC50 [8] [µM]	IC50 [10] [µM]	RF (resistance factor) [10]	complex left in 10% D2O/90% PBS [11]	IC50 in A2780/cis compared to A2780/wt [10] [fold]	also measured
CC(=O)[O][Pt]([Cl])([Cl])[O]C(=O)NCCN1C(=O)CCC1=O.Cc1ccccn1.N [Pico-Succ, (OC-6-21)[Acetato(ammine)(dichlorido)(1-(2-isocyanatoethyl)pyrrolidine-2,5-dione)(2-methylpyridine)platinum(IV)]]	77.8	> 100	30.9	63.2	32.1	> 100	>1.6	–	–	intact platinum(IV) complex left after 1 h in FCS (albumin): only traces; reduction with AA [1]: immediate reduction; time stable in absence of AA [4]: over 6 h; original complex left after ∼5 min with 10 equiv AA ([5]; 10 equiv AA, first measurement ∼5 min): only traces; complex reduced after ∼5 min with equimolar AA ([5]; equimolar AA, ∼5 min): 90%; time to complete reduction with CytC (horse heart CytC): 1 h; reduction of IC50 values, 7 days vs 72 h ([8]; HCT116 and CT26, colony formation 7 days compared to MTT 72 h): 2–3 fold; original compound remaining after 5 min with 10 equiv GSH [9]: only traces
N.N.O=C([O-])C1(C(=O)[O-])CCC1.[Pt+2] [carboplatin]	22.1	63.2	4.37	32	7.41	74.9	2.3****	> 95%	2.3	intact platinum(II) complex left after 8 h with GSH [12]: ~60%; response of CT26 allografts to carboplatin (CT26 allografts [13]): highly carboplatin-resistant
O=C1[O][Pt]2([NH][C@@H]3CCCC[C@H]3[NH]2)[O]C1=O [oxaliplatin]	1.97	2.19	1.81	0.63	1.46	0.68	1.1^ns	readily degraded	1.1	complex left in 10% D2O/90% PB [11]: > 90%; response of CT26 allografts to oxaliplatin (CT26 allografts [14]): only moderately responsive
